Results from ChEMBL document CHEMBL4476884, “Thienopyridine carboxamides as ubiquitin-specific protease inhibitors” (2017).

Tests used:
[1] = target: T1, Ubiquitin carboxyl-terminal hydrolase 28 (Homo sapiens, UniProt Q96RU2); assay: Inhibition of TEV-cleavable hexa-histidine tagged USP28 (1 to 1077 residues) (unknown origin) using ubiquitin-rhodamine 110 as substrate and measured after 90 mins by fluorescence based assay
T1 sequence (Q96RU2 whole entry): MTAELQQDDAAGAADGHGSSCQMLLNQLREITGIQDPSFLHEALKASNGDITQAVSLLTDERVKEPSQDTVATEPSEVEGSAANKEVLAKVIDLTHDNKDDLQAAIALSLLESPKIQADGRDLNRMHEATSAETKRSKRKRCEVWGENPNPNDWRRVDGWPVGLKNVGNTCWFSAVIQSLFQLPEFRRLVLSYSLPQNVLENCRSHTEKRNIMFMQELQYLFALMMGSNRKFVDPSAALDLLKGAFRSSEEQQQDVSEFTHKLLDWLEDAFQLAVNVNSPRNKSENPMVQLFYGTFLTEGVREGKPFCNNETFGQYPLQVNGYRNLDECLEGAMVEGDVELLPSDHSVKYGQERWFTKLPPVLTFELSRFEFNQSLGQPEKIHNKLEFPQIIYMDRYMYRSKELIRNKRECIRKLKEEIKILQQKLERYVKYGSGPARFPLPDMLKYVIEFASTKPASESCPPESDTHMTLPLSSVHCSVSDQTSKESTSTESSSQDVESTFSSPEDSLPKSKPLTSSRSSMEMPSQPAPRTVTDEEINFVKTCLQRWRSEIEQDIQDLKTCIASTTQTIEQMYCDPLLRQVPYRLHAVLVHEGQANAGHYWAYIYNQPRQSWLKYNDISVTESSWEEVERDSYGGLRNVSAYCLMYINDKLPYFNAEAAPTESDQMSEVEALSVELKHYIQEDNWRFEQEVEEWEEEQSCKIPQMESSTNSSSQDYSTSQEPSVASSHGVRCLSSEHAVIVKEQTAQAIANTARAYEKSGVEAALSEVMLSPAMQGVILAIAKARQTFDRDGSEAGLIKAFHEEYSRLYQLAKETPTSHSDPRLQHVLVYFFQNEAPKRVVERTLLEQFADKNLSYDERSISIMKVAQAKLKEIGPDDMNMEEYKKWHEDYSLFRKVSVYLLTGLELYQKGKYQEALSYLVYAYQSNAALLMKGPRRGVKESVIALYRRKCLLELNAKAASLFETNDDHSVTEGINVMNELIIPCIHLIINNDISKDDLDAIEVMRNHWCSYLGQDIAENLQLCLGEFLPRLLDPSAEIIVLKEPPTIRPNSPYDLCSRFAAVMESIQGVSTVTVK

[2] = target: T2, Ubiquitin carboxyl-terminal hydrolase 25 (Homo sapiens, UniProt Q9UHP3); assay: Inhibition of recombinant C-terminal 6-His tagged human USP25 using ubiquitin-rhodamine 110 as substrate preincubated for 30 mins followed by substrate addition and measured after 45 mins by fluorescence based assay
T2 sequence (Q9UHP3 whole entry): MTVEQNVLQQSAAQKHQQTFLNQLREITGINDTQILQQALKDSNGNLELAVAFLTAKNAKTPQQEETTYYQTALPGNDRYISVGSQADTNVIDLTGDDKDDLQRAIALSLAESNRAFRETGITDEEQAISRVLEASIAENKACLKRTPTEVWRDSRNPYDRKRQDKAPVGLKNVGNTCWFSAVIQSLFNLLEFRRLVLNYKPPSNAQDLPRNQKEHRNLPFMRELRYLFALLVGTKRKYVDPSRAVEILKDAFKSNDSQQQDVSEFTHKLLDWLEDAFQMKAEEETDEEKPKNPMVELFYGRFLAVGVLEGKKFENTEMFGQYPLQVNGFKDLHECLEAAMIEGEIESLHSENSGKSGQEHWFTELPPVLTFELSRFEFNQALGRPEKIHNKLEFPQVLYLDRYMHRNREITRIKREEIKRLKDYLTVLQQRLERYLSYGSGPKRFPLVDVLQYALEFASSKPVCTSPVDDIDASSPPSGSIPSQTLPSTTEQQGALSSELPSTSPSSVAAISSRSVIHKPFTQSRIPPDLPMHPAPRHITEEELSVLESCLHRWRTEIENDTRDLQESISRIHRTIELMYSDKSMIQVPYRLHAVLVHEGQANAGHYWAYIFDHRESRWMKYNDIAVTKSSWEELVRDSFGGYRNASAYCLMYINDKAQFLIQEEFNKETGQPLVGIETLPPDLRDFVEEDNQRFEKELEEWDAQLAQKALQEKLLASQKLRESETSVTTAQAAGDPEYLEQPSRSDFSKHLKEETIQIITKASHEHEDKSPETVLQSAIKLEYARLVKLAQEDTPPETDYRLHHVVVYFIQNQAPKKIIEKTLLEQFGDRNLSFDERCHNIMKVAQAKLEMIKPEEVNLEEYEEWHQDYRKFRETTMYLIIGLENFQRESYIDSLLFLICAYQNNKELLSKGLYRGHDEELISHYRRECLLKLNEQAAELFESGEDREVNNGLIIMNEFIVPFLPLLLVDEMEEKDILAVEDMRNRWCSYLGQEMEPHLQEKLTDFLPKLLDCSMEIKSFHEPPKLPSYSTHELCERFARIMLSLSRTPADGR

Row | Compound | IC50 [1] [µM] | IC50 [2] [µM]
1 | Cc1ccc2c(N)c(C(=O)NCCc3ccc(N4CCC(NC5CC5)C4)cc3)sc2n1 (centres undefined) | 0.2 to 2 | 0.2 to 2
2 | Cc1ccc2c(N)c(C(=O)NCCc3ccc(N4CCN[C@H](C)C4)cc3)sc2n1 | < 0.2 | 0.2 to 2
3 | Cc1ccc2c(N)c(C(=O)NCCc3ccc(N4CCNCC4)c(-c4cnn(C)c4)c3)sc2n1 | 0.2 to 2 | 2 to 10
4 | Cc1ccc2c(N)c(C(=O)NCCc3ccc(N4CCCC45CCCNC5)cc3)sc2n1 (centres undefined) | < 0.2 | 0.2 to 2
5 | Cc1ccc2c(N)c(C(=O)NCCc3ccc(N4CCNCC4)c(-c4ccc(F)cc4)c3)sc2n1 | 2 to 10 | 2 to 10
6 | Cc1ccc2c(N)c(C(=O)NCCc3ccc(N4CCNCC4)c(-c4cccc(Cl)c4)c3)sc2n1 | 2 to 10 | 2 to 10
7 | Cc1cc(-c2cc(CCNC(=O)c3sc4nc(C)ccc4c3N)ccc2N2CCNCC2)ccn1 | 2 to 10 | 10 to 25
8 | Cc1ccc2c(N)c(C(=O)NCCc3ccc(N4CCC5(CC4)CNC5)cc3)sc2n1 | < 0.2 | 0.2 to 2
9 | Cc1cccc(-c2cc(CCNC(=O)c3sc4nc(C)ccc4c3N)ccc2N2CCNCC2)c1 | 10 to 25 | 2 to 10
10 | Cc1ccc2c(N)c(C(=O)NCCc3ccc(N4CCN[C@H](C(C)C)C4)cc3)sc2n1 | < 0.2 | 0.2 to 2
11 | CC(=O)Nc1ccc2c(N)c(C(=O)NCCc3ccc(N4CCNCC4)cc3)sc2n1 | 2 to 10 | 
12 | Cc1ccc2c(N)c(C(=O)NCCc3ccc(N4CCC5(CCNCC5)C4)cc3)sc2n1 | 0.2 to 2 | 2 to 10
13 | Cc1ccc2c(N)c(C(=O)NCCc3ccc(N4CCNCC4)c(-c4ccccc4C)c3)sc2n1 | 0.2 to 2 | 2 to 10
14 | Cc1ccc2c(N)c(C(=O)NCCc3ccc(N4CCN[C@@H](C(C)C)C4)cc3)sc2n1 | 0.2 to 2 | 0.2 to 2
15 | Cc1ccc2c(N)c(C(=O)NCCc3ccc(N4CC[C@H]5CNC[C@H]5C4)cc3)sc2n1 | 0.2 to 2 | 
16 | Cc1ccc2c(N)c(C(=O)NCCc3ccc(N4CCCNCC4)cc3)sc2n1 | 0.2 to 2 | 0.2 to 2
17 | Cc1ccc2c(N)c(C(=O)NCCc3ccc(N4CCCC5(CCNCC5)C4)cc3)sc2n1 | < 0.2 | 0.2 to 2
18 | Cc1ccc2c(N)c(C(=O)NCCc3ccc(N4CCC5(CCNC5)C4)cc3)sc2n1 (centres undefined) | 0.2 to 2 | 2 to 10
19 | Cc1ccc2c(N)c(C(=O)NCCc3ccc(N4CCNC[C@H]4C)cc3)sc2n1 | < 0.2 | < 0.2
20 | CN[C@H]1CCN(c2ccc(CCNC(=O)c3sc4nc(C)ccc4c3N)cc2)C1 | 0.2 to 2 | 0.2 to 2
21 | Cc1ccc(-c2cc(CCNC(=O)c3sc4nc(C)ccc4c3N)ccc2N2CCNCC2)cc1 | 2 to 10 | 2 to 10

Row | Compound | IC50 [1] [µM] | IC50 [2] [µM]
22 | Cc1ccc2c(N)c(C(=O)NCCc3ccc(N4C[C@H]5CNC[C@H]5C4)cc3)sc2n1 | 0.2 to 2 | 0.2 to 2
23 | CN[C@@H]1CCN(c2ccc(CCNC(=O)c3sc4nc(C)ccc4c3N)cc2)C1 | 0.2 to 2 | 
24 | COCCn1cc(-c2cc(CCNC(=O)c3sc4nc(C)ccc4c3N)ccc2N2CCNCC2)cn1 | 2 to 10 | 2 to 10
25 | Cc1ccc2c(N)c(C(=O)NCCc3ccc(N4CCNCC4)c(-c4cncnc4)c3)sc2n1 | 0.2 to 2 | 0.2 to 2
26 | Cc1ccc2c(N)c(C(=O)NCCc3ccc(N4CCC5(CNCCO5)C4)cc3)sc2n1 (centres undefined) | 0.2 to 2 | 2 to 10
27 | Cc1ccc2c(N)c(C(=O)NCCc3ccc(N4CCNCC4)c(-c4ccccc4F)c3)sc2n1 | 0.2 to 2 | 2 to 10
28 | Cc1ccc2c(N)c(C(=O)NCCc3ccc(N4CC5(CCCN5)C4)cc3)sc2n1 | < 0.2 | 0.2 to 2
29 | Cc1ccc2c(N)c(C(=O)NCCc3ccc(N4CCC5(CCCNC5)CC4)cc3)sc2n1 | 0.2 to 2 | 0.2 to 2
30 | Cc1ccc2c(N)c(C(=O)NCCc3ccc(N4CCCC5(CCNC5)C4)cc3)sc2n1 (centres undefined) | 0.2 to 2 | 0.2 to 2
31 | Cc1ccc2c(N)c(C(=O)NCCc3ccc(N4CCNCC4)c(-c4cccc(F)c4)c3)sc2n1 | 2 to 10 | 2 to 10
32 | Cc1ccc2c(N)c(C(=O)NCCc3ccc(N4CCC5(CCNC5)CC4)cc3)sc2n1 | 0.2 to 2 | 
33 | Cc1ccc2c(N)c(C(=O)NCCc3ccc(N4CCNC[C@@H]4C)cc3)sc2n1 | < 0.2 | 
34 | Cc1ccc2c(N)c(C(=O)NCCc3ccc(N4CCOC5(CCNCC5)C4)cc3)sc2n1 | 0.2 to 2 | 
35 | Cc1ccc2c(N)c(C(=O)NCCc3ccc(N[C@@H]4CCNC4)cc3)sc2n1 | < 0.2 | 
36 | Cc1ccc2c(N)c(C(=O)NCCc3ccc(N4CC5(CNC5)C4)cc3)sc2n1 | 0.2 to 2 | 2 to 10
37 | CNC1CCN(c2ccc(CCNC(=O)c3sc4nc(C)ccc4c3N)cc2)CC1 | 0.2 to 2 | 
38 | Cc1ccc2c(N)c(C(=O)NCCc3ccc(N4CCNCC4)c(-c4ccccc4Cl)c3)sc2n1 | 0.2 to 2 | 0.2 to 2
39 | Cc1ccc2c(N)c(C(=O)NCCc3ccc(N(C)CC4CCCNC4)cc3)sc2n1 (centres undefined) | 0.2 to 2 | 0.2 to 2
40 | Cc1ccc2c(N)c(C(=O)NCCc3ccc(N4CCCC5(CCCNC5)C4)cc3)sc2n1 (centres undefined) | 0.2 to 2 | 0.2 to 2
41 | Cc1ccc2c(N)c(C(=O)NCCc3ccc(N4CCNCC4)c(-c4ccc(Cl)cc4)c3)sc2n1 | 2 to 10 | 2 to 10
